Data: PubChem BioAssay (NCI)
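Tested at 5 concentrations; 48 h exposure; 96-well plates; endpoints linearly interpolated, else capped at highest concentration. Abbreviation: GI50, concentration required for 50% inhibition of growth. TGI: concentration producing complete growth inhibition.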 Where a SMILES comes first, the peptide text is derived from it. [ ]: non-standard residue; d: D form. The star is where a group is joined. NMeF = CN[CH](Cc1ccccc1)C(=O)O; NMeV = CN[CH](C(=O)O)C(C)C; Boc = CC(C)(C)OC(=O)*; OBn = c1ccc(CO*)cc1

Tests used:
Test in all cases: NCI tumour cell line growth inhibition, 48 h
EKVX NSCLC = tested on: EKVX NSCLC
LOX IMVI melanoma = tested on: LOX IMVI melanoma
MDA-MB-231 breast = tested on: MDA-MB-231 breast
OVCAR-8 ovarian = tested on: OVCAR-8 ovarian
RPMI-8226 leukemia = tested on: RPMI-8226 leukemia
SF-295 CNS = tested on: SF-295 CNS
SF-539 CNS = tested on: SF-539 CNS
SK-MEL-2 melanoma = tested on: SK-MEL-2 melanoma
TK-10 renal = tested on: TK-10 renal
CCRF-CEM leukemia = tested on: CCRF-CEM leukemia

SMILES	TGI (EKVX NSCLC) [µM]	TGI (LOX IMVI melanoma) [µM]	TGI (MDA-MB-231 breast) [µM]	TGI (OVCAR-8 ovarian) [µM]	TGI (RPMI-8226 leukemia) [µM]	TGI (SF-295 CNS) [µM]	TGI (SF-539 CNS) [µM]	TGI (SK-MEL-2 melanoma) [µM]	TGI (TK-10 renal) [µM]	TGI (CCRF-CEM leukemia) [µM]	GI50 (CCRF-CEM leukemia) [µM]	GI50 (LOX IMVI melanoma) [µM]	GI50 (MDA-MB-231 breast) [µM]	GI50 (OVCAR-8 ovarian) [µM]	GI50 (RPMI-8226 leukemia) [µM]	GI50 (TK-10 renal) [µM]
CCOC(=O)/C=C(/C(=O)OCC)n1c(=O)c(C)cn(C2CC(N=[N+]=[N-])C(CO)O2)c1=O (stereo unspecified)	94	> 100	46	> 100	49	> 100	47.9	72	> 100							
O=C(NN=C1CCCCC1)Nc1ccccc1Cl	> 100	> 100	> 100	> 100	> 100	> 100	> 100	91.7	> 100	> 100						
C=C1c2nc3ccccc3n2C=C(c2ccc(Cl)cc2)N1c1ccccc1	45.2	> 100	> 100	23.7	> 100	24	25.9	> 100	24.8	> 100						
CC(C)C(NC(=O)OC(C)(C)C)C(=O)N(C)C(Cc1ccccc1)C(=O)N(C)C(C(=O)N(C)C(C(=O)OCc1ccccc1)C(C)C)C(C)C (stereo unspecified) (Boc-V[NMeF][NMeV][NMeV]-OBn; configuration not given here)	> 100	> 100		> 100	> 100	> 100	> 100		> 100	> 100						
COC(=O)C[C@H](COCc1ccccc1)NC(=O)C[C@H](COCc1ccccc1)NC(=O)C[C@H](COCc1ccccc1)NC(=O)OC(C)(C)C	> 100	> 100	> 100	> 100	> 100	> 100	> 100	> 100		> 100						
CSC(=S)N(C)NC(=O)c1cccc(C(=O)NN(C)C(=S)SC)n1	> 100	> 100		> 100	> 100	16	70.1			> 100						
O=C1C[C@H](c2ccccc2)C2(C(=O)c3ccccc3C2=O)[C@@H](c2ccccc2)C1			> 100	> 100	> 100	> 100		69.3		> 100						
Cc1nc2ccccc2c(=O)n1NC(=O)Cc1ccccc1	> 100	> 100	> 100	> 100	> 100	> 100	> 100		> 100	> 100						
O=C1C=CC2(O[C@@H](Cc3ccccc3)[C@H](Cc3ccccc3)O2)C(SC(=O)c2ccccc2)C1 (stereo partly specified)		1.46	6.39	0.549	1.24	4.28	3.04	3.46	4.09	1.15						
CC(/C=N/NC1=NCCCCN1)=N\NC1=NCCCCN1	> 100	> 100	> 100	> 100	> 100	> 100	> 100		> 100	> 100						
CC(NC(=O)C(C)C(=O)NCc1ccc(C(F)(F)F)cc1)C(N)=O (stereo unspecified)	> 100		> 100	> 100	> 100	> 100	> 100	> 100		> 100						
Cc1nnc(N)nc1/C=C\c1cccs1	55.6	> 100	> 100	44.5	55.4	> 100		30.5	> 100	70.8						
C/C=C/C=C/C1=NN(c2cccc(S(=O)(=O)O)c2)C2(C1)SCC(=O)N2c1nc2ccccc2s1 (stereo unspecified)	> 100	51.8	> 100	> 100	> 100		> 100	> 100	> 100	77.7						
CN(C)c1nc(N(C)C)nc(N(C)CN(C)c2nc(N(C)C)nc(N(C)C)n2)n1	> 100	> 100		> 100	> 100	> 100	> 100	> 100	> 100	> 100						
COc1ccc(C2C(C(=O)O)=C(COC(C)=O)Oc3cc4c(cc32)OCO4)cc1 (stereo unspecified)	> 100	> 100		> 100	> 100	> 100			> 100	> 100						
CC(C)C(/C=C/c1ccccc1)=N\NC(=O)N/N=C(/C=C/c1ccccc1)C(C)C	45.8	> 100		> 100	> 100	> 100	> 100	52	> 100	> 100						
C1OCN2c3nonc3N3COCN4c5nonc5N1C2C43 (stereo unspecified)	> 100		> 100	> 100	> 100	> 100	> 100	> 100	> 100	> 100						
CC[C@@]1(O)C(=O)OCc2c1cc1n(c2=O)Cc2c-1nc1ccccc1c2/C=N\NC(=O)C(N)CS (stereo partly specified)	> 100	13.4	> 100	> 100	> 100	> 33.9	0.806	> 100	> 100							
NCCCCNCCCN	> 100	> 100	> 100	> 100		> 100	> 100	> 100	> 100							
CC(=O)Nc1ccc(-c2nnc(SCC(=O)Nc3ccccc3[N+](=O)[O-])o2)cc1		> 100		> 100	> 100	> 100	> 100	> 100	> 100	> 100						
O=C(/C=C/c1cccs1)c1ccsc1	> 100	35.1	> 10	96.5	45.4	> 100		> 100	97.6	45.5						
NCCCn1c2c(c3ccc([N+](=O)[O-])cc3c1=O)C(=O)c1cc3c(cc1-2)OCO3		0.121	0.935	0.402	2.14				4.98	> 100	0.0164	< 0.01	0.44	0.106	< 0.017	1.83
CC1=CC(=O)c2cccc(NC3=NCCO3)c21	> 100	> 100	> 100		> 100	> 100	> 100	> 100	> 100	> 100						
